{
  "source": "paper PMC5345905",
  "about": "(Journal of the American Chemical Society, 2017)",
  "tested_on": "Bacillus subtilis 168",
  "experiment": "minimal inhibitory concentration",
  "type": "cell-based",
  "settings": "purified unique compounds, quantitative MIC",
  "data": [
    {"substance": "thiocillin [WT]", "values": [
      {"measurement": "MIC", "value": 0.5, "unit": "µg/mL"}
    ]}
  ]
}
